These are literature values, as cited in patent US20030060663A1, “Novel therapeutic agents for macromolecular structures” (priority 1998, published 2003).

The subject of data set [1] is coxsackievirus A21. The note with it: p.o. administration, patients challenged with coxsackievirus A21.
Data set [2] has as its system HRV (human rhinovirus)-16, 39, and 50. The settings on record: administered orally to patients infected with HRV-16, 39, and 50.
Data set [3] has as its system fungal pathogens. The settings on record: on average; for MIC values, fold higher than amphotericin B: range of fungal pathogens.
Data set [4] relates to yeasts. The note with it: relative to amphotericin B.
The conditions of data set [5]: animal models.
For data set [6] the following is noted: clinical trials.
The test system of data set [7] is axonal microtubules. The settings on record: intact tectal plates from mouse embryos.
For data set [8], the system named is mitotic microtubules. The note with it: intact tectal plates from mouse embryos; blockade of cells at metaphase.
Data set [9] deals with HRV-9. The settings on record: against HRV-9.
The test system of data set [10] is Microsporum, Epidermophyton and Trichophyton. The settings on record: various species of Microsporum.

Like-named read-outs stand apart in the source and are kept apart here.

Take `Cc1cc(CCCCCOc2c(Cl)cc(C3N=CCO3)cc2Cl)on1` (centres unmarked) [Compound A]: the “prophylactic effect in clinical trials” value in data set [1] is “prophylactic effect”. For the same molecule, in [2], the therapeutic effect entry is “did not demonstrate a therapeutic effect”.
For the molecule `COC12CC(O)CC(O)C(O)CCC(O)CC(O)CC(=O)OC(C)C(C)C(O)C(C)C=CC=CC=CC=CC=CC=CC=CC(OC3OC(C)C(O)C(N)C3O)CC(O1)C(C(=O)O)C(O)C2` (centres unmarked) [methoxy ketal], the “MIC values, fold higher than amphotericin B” value in [3] was 2 fold.
On to “monovalent adduct of amphotericin B with N,N′-1,6-hexandiyl-bis(maleimide)”, for which the “MIC values against yeasts, fold higher than amphotericin B” value in [4] was “more than 20 fold”.
Take `CCCOC12CC(O)CC(O)C(O)CCC(O)CC(O)CC(=O)OC(C)C(C)C(O)C(C)C=CC=CC=CC=CC=CC=CC=CC(OC3OC(C)C(O)C(N)C3O)CC(O1)C(C(=O)O)C(O)C2` (centres unmarked) [n-propyloxy ketal]: the “fold less potent in vitro” value in [3] was 10 fold.
Consider `CC1C=CC=CC=CC=CC=CC=CC=CC(OC2OC(C)C(O)C(N)C2O)CC2OC(OCCO)(CC(O)CC(O)C(O)CCC(O)CC(O)CC(=O)OC(C)C(C)C1O)CC(O)C2C(=O)O` (stereo not drawn) [beta-hydroxyethoxy ketal], for which the “MIC values, fold higher than amphotericin B” value in data set [3] is 2 fold.
With `COC(=O)[C@H]1[C@@H]2C[C@@H](O[C@@H]3O[C@H](C)[C@@H](O)[C@H](N)[C@@H]3O)/C=C/C=C/C=C/C=C/C=C/C=C/C=C/[C@H](C)[C@@H](O)[C@@H](C)[C@H](C)OC(=O)C[C@H](O)C[C@H](O)CC[C@@H](O)[C@H](O)C[C@H](O)C[C@](O)(C[C@@H]1O)O2` [Amphotericin B methyl ester], the “nephrotoxicity compared with amphotericin B” value in data set [5] and in [6] was “less nephrotoxic” throughout.
Regarding `CC[C@]1(O)C[C@@H]2CN(CCc3c([nH]c4ccccc34)[C@@](C(=O)OC)(c3cc4c(cc3OC)N(C)[C@H]3[C@@](O)(C(=O)OC)[C@H](OC(C)=O)[C@]5(CC)C=CCN6CC[C@]43[C@@H]65)C2)C1` [vinblastine], in data set [7], the “concentration producing depolymerization of axonal microtubules” value (from here on “concentration producing depolymerization”) is given as 30 mcM. Moreover, the “concentration at which mitotic microtubule formation is inhibited” value in data set [8] is 2 mcM.
As to `COc1ccc(N2CCN(c3cccc(C)c3)CC2)nn1` [compound C], the prophylactic use entry in data set [9] is recorded as “worked prophylactically”.
In the case of `COC1=CC(=O)C[C@@H](C)[C@]12Oc1c(Cl)c(OC)cc(OC)c1C2=O` [Griseofulvin], in data set [10], the “in vitro activity against fungi” value is recorded as “fungistatic”.
Turning to `CCC1=C[C@@H]2CN(C1)Cc1c([nH]c3ccccc13)[C@@](C(=O)OC)(c1cc3c(cc1OC)N(C)[C@H]1[C@@](O)(C(=O)OC)[C@H](OC(C)=O)[C@]4(CC)C=CCN5CC[C@]31[C@@H]54)C2` [vinorelbine, 3′,4′-Didehydro-4′-deoxy-C′-norvincaleukoblastine], the “concentration producing depolymerization” value in [7] is recorded as 40 mcM. The “concentration at which mitotic microtubule formation is inhibited” value in data set [8] is on record as 2 mcM.
Consider `CC[C@]1(O)C[C@H]2CN(CCc3c([nH]c4ccccc34)[C@@](C(=O)OC)(c3cc4c(cc3OC)N(C=O)[C@H]3[C@@](O)(C(=O)OC)[C@H](OC(C)=O)[C@]5(CC)C=CCN6CC[C@]43[C@@H]65)C2)C1` [vincristine, Vincristine], for which the “concentration producing depolymerization” value in [7] is 5 mcM. In data set [8], the “concentration at which mitotic microtubule formation is inhibited” value is 2 mcM.
In the case of `COC(=O)C1C(O)CC2(O)CC(O)CC(O)C(O)CCC(O)CC(O)CC(=O)OC(C)C(C)C(O)C(C)C=CC=CC=CC=CC=CC=CC=CC(OC3OC(C)C(O)C(NC(=O)C(N)CCCN)C3O)CC1O2` (centres unmarked) [N-ornithyl amphotericin B methyl ester], in data set [5], the “nephrotoxicity compared with amphotericin B” value is listed as “less nephrotoxic”.
